Assay [1] has as its target T1, US28 (Human cytomegalovirus, UniProt P69332). The assay can be described thus: Inhibition of binding of native chemokine ligands (fractalkine, eotaxin) to US28. The arrangement: species or system human CMV (HCMV). The conditions noted are these: native chemokine ligands such as fractalkine and eotaxin, among others.
In a further assay the test system is chemokine receptors. The experiment in a line: Binding specificity among chemokine receptors tested.
Assay [2] deals with T1, US28. The experiment in a line: Binding affinity of fractalkine to US28. The arrangement: species or system human CMV (HCMV). The note with it: read-out: K1 (affinity of binding to US28).

T1 sequence (P69332 whole entry): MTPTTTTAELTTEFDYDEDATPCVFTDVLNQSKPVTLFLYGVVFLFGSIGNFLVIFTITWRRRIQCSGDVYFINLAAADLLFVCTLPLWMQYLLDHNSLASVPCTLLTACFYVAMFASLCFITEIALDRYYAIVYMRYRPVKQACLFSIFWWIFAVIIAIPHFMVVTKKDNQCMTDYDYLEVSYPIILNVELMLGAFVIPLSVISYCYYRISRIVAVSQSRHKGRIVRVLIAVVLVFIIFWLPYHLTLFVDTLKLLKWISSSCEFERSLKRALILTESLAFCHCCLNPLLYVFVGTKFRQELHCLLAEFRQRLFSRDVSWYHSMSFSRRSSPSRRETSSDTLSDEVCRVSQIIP

Regarding `CCN1CCC[C@H]1CNC(=O)c1c(OC)ccc(I)c1O` [S(−)-IBZM, S(−)-3-Iodo-2-hydroxy-6-methoxy-N[(1-ethyl-2-pyrrolidinyl)methyl]benzamide], the “inhibition of the binding of native chemokine ligands to US28” value at US28 [1] is listed as “effective inhibitor”. Also, the “specificity of binding to US28 among all chemokine receptors tested” value in the assay on chemokine receptors is listed as “bind specifically to US28”.

B1: fractalkine: the CX3C chemokine, expressed on certain endothelial cell surfaces and dendritic cells; native ligand of US28 (protein, UniProt P78423 25-397, looked up)
Fractalkine: QHHGVTKCNITCSKMTSKIPVALLIHYQQNQASCGKRAIILETRQHRLFCADPKEQWVKDAMQHLDRQAAALTRNGGTFEKQIGEVKPRTTPAAGGMDESVVLEPEATGESSSLEPTPSSQEAQRALGTSPELPTGVTGSSGTRLPPTPKAQDGGPVGTELFRVPPVSTAATWQSSAPHQPGPSLWAEAKTSEAPSTQDPSTQASTASSPAPEENAPSEGQRVWGQGQSPRPENSLEREEMGPVPAHTDAFQDWGPGSMAHVSVVPVSSEGTPSREPVASGSWTPKAEEPIHATMDPQRLGVLITPVPDAQAATRRQAVGLLAFLGLLFCLGVAMFTYQSLQGCPRKMAGEMAEGLRYIPRSCGSNSYVLVPV
Turning to B1, in the assay with US28 [2], the Ki is around 0.05 nM.
